Literature values, collected in US20110071071A1, “PSMB10: A DIAGNOSIS MARKER AND THERAPEUTIC TARGET OF CHRONIC REJECTION” (priority 2008, published 2011).

Legend:
[1] = molecular target: T1, chymotrypsin-like activity of the purified 20S proteasome (Homo sapiens, UniProt P28074); settings: in vitro
T1 sequence (P28074 60-263): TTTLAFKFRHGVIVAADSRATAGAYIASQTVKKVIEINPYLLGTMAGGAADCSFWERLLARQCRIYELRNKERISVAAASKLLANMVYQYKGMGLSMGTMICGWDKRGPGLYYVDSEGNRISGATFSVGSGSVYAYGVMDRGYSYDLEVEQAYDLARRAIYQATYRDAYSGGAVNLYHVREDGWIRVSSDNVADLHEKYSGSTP

[2] = molecular target: 20S proteasome (Homo sapiens, UniProt P28072+P28074+Q99436); settings: all three catalytic sites
[3] = tested on: murine neuroblastoma cell line Neuro-2a; settings: Neuro-2a cells

SMILES: O=C(OC1Cc2c(O)cc(O)cc2OC1c1cc(O)c(O)c(O)c1)c1cc(O)c(O)c(O)c1 (single isomer, unassigned; (-)) [(−)-EGCG, (−)-epigallocatechin 3-gallate]
- inhibition of chymotrypsin-like (CT-L) activity of the 20S proteasome [1]: inhibiting the chymotrypsin-like activity

SMILES: C[C@@]12OC(=O)[C@]1([C@@H](O)[C@@H]1C=CCCC1)NC(=O)[C@@H]2CCCl [NPI-0052, salinosporamide A]
- 20S proteasome inhibition [2]: highly potent and selective 20S proteasome inhibitor with irreversible activity against all three catalytic sites

SMILES: CC(=O)N[C@@H](CSC(=O)[C@]1([C@@H](O)C(C)C)NC(=O)[C@H](C)[C@@H]1O)C(=O)O [lactacystin]
- neurite outgrowth [3]: induce neurite outgrowth
